Source: patent US20250186391A1, “ORAL COMPLEMENT FACTOR D INHIBITORS” (BioCryst Pharmaceuticals, Inc., priority 2019, published 2025)
pIC50: −log10 of the molar value.

Molecular target: Factor D (Homo sapiens (Human), UniProt P00746)
Experiment: Factor D esterolytic assay
Assay type: biochemical
Details: Z-Lys-SBzl substrate, 100 mM HEPES, 500 mM NaCl, pH 7.5, 10% DMSO; tested a minimum of three times; read-out: Measured Ki (IC50) Value for Compounds: IC50
In short: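 Buffer was 100 mM HEPES, 500 mM NaCl, pH 7.5 with 10% DMSO. Compound and Factor D were combined, then Z-Lys-SBzl (1.29 mM) was added either at once or following room-temperature incubation. Rates came from DTNB colour at 405 nm minus 690 nm over 600 s, with percent inhibition giving IC50 over at least three tests.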

Sequence of Factor D (P00746 26-253): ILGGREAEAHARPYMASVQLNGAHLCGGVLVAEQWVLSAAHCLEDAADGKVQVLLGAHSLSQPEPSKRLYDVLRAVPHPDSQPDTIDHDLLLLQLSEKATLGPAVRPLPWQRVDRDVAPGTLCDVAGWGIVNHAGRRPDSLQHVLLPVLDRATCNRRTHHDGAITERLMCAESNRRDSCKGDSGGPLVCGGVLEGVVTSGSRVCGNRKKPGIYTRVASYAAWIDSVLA

Row | SMILES | pIC50
1 | NCc1cccc(-c2cc(CCC3CC3)c3occ(COc4ccccc4CC(=O)O)c3c2)c1 [Compound 170b, 2-(2-((5-(3-(aminomethyl)phenyl)-7-(2-cyclopropylethyl)benzofuran-3-yl)methoxy)phenyl)acetic acid] | > 6.00
2 | CCCc1oc2ccc(-c3cccc(CN)c3)cc2c1COc1cc(OC)ccc1CC(=O)O [Compound 284e, 2-(2-((5-(3-(aminomethyl)phenyl)-2-propylbenzofuran-3-yl)methoxy)-4-methoxyphenyl)acetic acid] | > 6.00
3 | NCc1cccc(-c2cc(CNCC(F)(F)F)c3occ(COc4ccccc4CC(=O)O)c3c2)c1 [Compound 179b, 2-(2-((5-(3-(aminomethyl)phenyl)-7-(((2,2,2-trifluoroethyl)amino)methyl)benzofuran-3-yl)methoxy)phenyl)acetic acid] | > 6.00
4 | NCc1cccc(-c2cc(CN3CCC(F)(F)CC3)c3occ(COc4ccccc4CC(=O)O)c3c2)c1 [Compound 89e, 2-(2-((5-(3-(aminomethyl)phenyl)-7-((4,4-difluoropiperidin-1-yl)methyl)benzofuran-3-yl)methoxy)phenyl)acetic acid] | > 6.00
5 | NCc1cccc(-c2ccc3occ(COc4cccc(CC(=O)O)c4)c3c2)c1 [Compound 4d, 2-(3-((5-(3-(aminomethyl)phenyl)benzofuran-3-yl)methoxy)phenyl)acetic acid] | 5.00 to 6.00
6 | CC(C)(C)OC(=O)Cc1ccccc1OCc1cc2cc(COc3ccccc3CC(=O)O)cc(-c3cccc(CN)c3)c2o1 [Compound 24a, 2-(2-((7-(3-(aminomethyl)phenyl)-2-((2-(2-(tert-butoxy)-2-oxoethyl)phenoxy)methyl)benzofuran-5-yl)methoxy)phenyl)acetic acid] | > 6.00
7 | CC(C)n1cc(-c2cc(-c3cccc(CN)c3)cc3c(COc4ccccc4CC(=O)O)coc23)cn1 [Compound 130c, 2-(2-((5-(3-(aminomethyl)phenyl)-7-(1-isopropyl-1H-pyrazol-4-yl)benzofuran-3-yl)methoxy)phenyl)acetic acid] | > 6.00
8 | NCc1cc(-c2cc3c(COc4ccccc4CC(=O)O)cccc3o2)ccn1 [Compound 290h, 2-(2-((2-(2-(aminomethyl)pyridin-4-yl)benzofuran-4-yl)methoxy)phenyl)acetic acid] | > 6.00
9 | NCc1cccc(-c2ccc3oc(C(F)F)c(COc4ccccc4CC(=O)O)c3c2)c1 [Compound 139c, 2-(2-((5-(3-(aminomethyl)phenyl)-2-(difluoromethyl)benzofuran-3-yl)methoxy)phenyl)acetic acid] | > 6.00
10 | NCc1cccc(-c2cc(NCC3CCCC3)c3occ(COc4ccccc4CC(=O)O)c3c2)c1 [Compound 146d, 2-(2-((5-(3-(aminomethyl)phenyl)-7-((cyclopentylmethyl)amino)benzofuran-3-yl)methoxy)phenyl)acetic acid] | > 6.00
11 | CC(C)(C)OC(=O)Nc1ccc(CC(=O)O)c(OCc2coc3ccc(-c4cccc(CN)c4)cc23)c1 [Compound 83h, 2-(2-((5-(3-(aminomethyl)phenyl)benzofuran-3-yl)methoxy)-4-((tert-butoxycarbonyl)amino)phenyl)acetic acid] | > 6.00
12 | NCc1cccc(-c2cc(CN3CCC[C@H]3C(F)(F)F)c3occ(COc4ccccc4CC(=O)O)c3c2)c1 [Compound 178f, (S)-2-(2-((5-(3-(aminomethyl)phenyl)-7-((2-(trifluoromethyl)pyrrolidin-1-yl)methyl)benzofuran-3-yl)methoxy)phenyl)acetic acid] | > 6.00
13 | COCCc1oc2ccc(-c3cccc(CN)c3)cc2c1COc1cc(OC)ccc1CC(=O)O [Compound 238c, 2-(2-((5-(3-(aminomethyl)phenyl)-2-(2-methoxyethyl)benzofuran-3-yl)methoxy)-4-methoxyphenyl)acetic acid] | > 6.00
14 | NCc1cccc(-c2ccc3occ(COc4ccccc4CC(=O)O)c3c2)c1 [Compound 9e, 2-(2-((5-(3-(aminomethyl)phenyl)benzofuran-3-yl)methoxy)phenyl)acetic acid] | > 6.00
15 | NCc1cccc(-c2ccc3c(COc4ccccc4CC(=O)O)coc3c2)c1 [Compound 94d, 2-(2-((6-(3-(aminomethyl)phenyl)benzofuran-3-yl)methoxy)phenyl)acetic acid] | < 5.00
16 | CNc1cc(-c2cccc(CN)c2)cc2c(COc3ccccc3CC(=O)O)coc12 [Compound 152d, 2-(2-((5-(3-(aminomethyl)phenyl)-7-(methylamino)benzofuran-3-yl)methoxy)phenyl)acetic acid] | > 6.00
17 | CC(C)n1nc(COc2ccccc2CC(=O)O)c2cc(-c3cccc([C@@H](C)N)c3)ccc21 [Compound 323b, (R)-2-(2-((5-(3-(1-aminoethyl)phenyl)-1-isopropyl-1H-indazol-3-yl)methoxy)phenyl)acetic acid] | > 6.00
18 | NCc1cccc(-c2cc(Oc3ccccc3)c3occ(COc4ccccc4CC(=O)O)c3c2)c1 [Compound 194f, 2-(2-((5-(3-(aminomethyl)phenyl)-7-phenoxybenzofuran-3-yl)methoxy)phenyl)acetic acid] | > 6.00

Row | SMILES | pIC50
19 | NCc1cccc(-c2cc(-c3ccccc3N)c3occ(COc4ccccc4CC(=O)O)c3c2)c1 [Compound 222c, 2-(2-((5-(3-(aminomethyl)phenyl)-7-(2-aminophenyl)benzofuran-3-yl)methoxy)phenyl)acetic acid] | > 6.00
20 | CCCCC(C(=O)O)c1ccccc1OCc1nn(C(C)C)c2ccc(-c3cccc(CN)c3)cc12 (stereo not drawn) [Compound 312f, 2-(2-((5-(3-(aminomethyl)phenyl)-1-isopropyl-1H-indazol-3-yl)methoxy)phenyl)hexanoic acid] | 5.00 to 6.00
21 | Cc1ccc(CC(=O)O)c(OCc2c(C)oc3ccc(-c4cccc(CN)c4)cc23)c1 [Compound 131c, 2-(2-((5-(3-(aminomethyl)phenyl)-2-methylbenzofuran-3-yl)methoxy)-4-methylphenyl)acetic acid] | > 6.00
22 | NCc1cccc(-c2cc(CNCC3CC3)cc3cc(COc4ccccc4CC(=O)O)oc23)c1 [Compound 11d, 2-(2-((7-(3-(aminomethyl)phenyl)-5-(((cyclopropylmethyl)amino)methyl)benzofuran-2-yl)methoxy)phenyl)acetic acid] | > 6.00
23 | NCc1cccc(-c2coc3ccc(COc4ccccc4CC(=O)O)cc23)c1 [Compound 38e, 2-(2-((3-(3-(aminomethyl)phenyl)benzofuran-5-yl)methoxy)phenyl)acetic acid] | > 6.00
24 | NCc1cccc(-c2cc(CN3CCOCC3)c3occ(COc4ccccc4CC(=O)O)c3c2)c1 [Compound 79h, 2-(2-((5-(3-(aminomethyl)phenyl)-7-(morpholinomethyl)benzofuran-3-yl)methoxy)phenyl)acetic acid] | > 6.00
25 | NCc1cccc(-c2cccc3oc(COc4ccccc4CC(=O)O)cc23)c1 [Compound 26a, 2-(2-((4-(3-(aminomethyl)phenyl)benzofuran-2-yl)methoxy)phenyl)acetic acid] | > 6.00
26 | NCc1cccc(-c2cc(OCCF)c3occ(COc4ccccc4CC(=O)O)c3c2)c1 [Compound 248f, 2-(2-((5-(3-(aminomethyl)phenyl)-7-(2-fluoroethoxy)benzofuran-3-yl)methoxy)phenyl)acetic acid] | > 6.00
27 | CCc1oc2ccc(-c3cccc(CN)c3)cc2c1COc1ccccc1CC(=O)O [Compound 226c, 2-(2-((5-(3-(aminomethyl)phenyl)-2-ethylbenzofuran-3-yl)methoxy)phenyl)acetic acid] | > 6.00
28 | NCc1cccc(-c2ccc3[nH]cc(C(=O)Nc4ccccc4CC(=O)O)c3n2)c1 [Compound 14c, 2-(2-(5-(3-(aminomethyl)phenyl)-1H-pyrrolo[3,2-b]pyridine-3-carboxamido)phenyl)acetic acid] | > 6.00
29 | NCc1cccc(-c2cc(CN3CCNCC3)c3occ(COc4ccccc4CC(=O)O)c3c2)c1 [Compound 122b, 2-(2-((5-(3-(aminomethyl)phenyl)-7-(piperazin-1-ylmethyl)benzofuran-3-yl)methoxy)phenyl)acetic acid] | > 6.00
30 | NCc1cccc(-c2ccc3c(c2)c(COc2ccccc2CC(=O)O)nn3C2CCC2)c1 [Compound 298d, 2-(2-((5-(3-(aminomethyl)phenyl)-1-cyclobutyl-1H-indazol-3-yl)methoxy)phenyl)acetic acid] | > 6.00
31 | COc1cc(-c2cccc(CN)c2)cc2c(COc3ccccc3CC(=O)O)coc12 [Compound 18e, 2-(2-((5-(3-(aminomethyl)phenyl)-7-methoxybenzofuran-3-yl)methoxy)phenyl)acetic acid] | > 6.00
32 | NCc1cccc(-c2cc(COc3ccccc3)c3occ(COc4ccccc4CC(=O)O)c3c2)c1 [Compound 92e, 2-(2-((5-(3-(aminomethyl)phenyl)-7-(phenoxymethyl)benzofuran-3-yl)methoxy)phenyl)acetic acid] | > 6.00
33 | NCc1cccc(-c2ccc3oc(-c4ccc(F)cc4)c(COc4ccccc4CC(=O)O)c3c2)c1 [Compound 167e, 2-(2-((5-(3-(aminomethyl)phenyl)-2-(4-fluorophenyl)benzofuran-3-yl)methoxy)phenyl)acetic acid] | > 6.00
34 | Cn1nc(COc2ccccc2CC(=O)O)c2cc(-c3cccc(CN)c3)c3occc3c21 [Compound 3021, 2-(2-((5-(3-(aminomethyl)phenyl)-1-methyl-1H-furo[2,3-g]indazol-3-yl)methoxy)phenyl)acetic acid] | > 6.00
35 | NCc1cccc(-c2cc(-c3cccc(CN)c3)c3oc(COc4ccccc4CC(=O)O)cc3c2)c1 [Compound 8e, 2-(2-((5,7-bis(3-(aminomethyl)phenyl)benzofuran-2-yl)methoxy)phenyl)acetic acid] | > 6.00
36 | COc1ccc(CC(=O)O)c(OCc2c(C)oc3ccc(-c4ccnc(CN)c4F)cc23)c1 [Compound 281d, 2-(2-((5-(2-(aminomethyl)-3-fluoropyridin-4-yl)-2-methylbenzofuran-3-yl)methoxy)-4-methoxyphenyl)acetic acid] | > 6.00
